# According to paper PMC4140852 (PLoS Pathogens, 2014):
# Target: T1, APRc (rAPRc activation product, rAPRc105-231) (Rickettsia conorii, UniProt Q92FY8)
# T1 construct: gene RC1339
# Format: biochemical
# T1 sequence (Q92FY8 105-231 limits assumed): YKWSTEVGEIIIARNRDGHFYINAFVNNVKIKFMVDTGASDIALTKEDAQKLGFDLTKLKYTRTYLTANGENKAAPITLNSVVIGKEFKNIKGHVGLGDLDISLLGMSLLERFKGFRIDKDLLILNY
smiles,measurement,value
CC(C)(C)NC(=O)[C@@H]1CN(Cc2cccnc2)CCN1C[C@@H](O)C[C@@H](Cc1ccccc1)C(=O)N[C@H]1c2ccccc2C[C@H]1O [indinavir],% inhibition at 0.25 mM,incubation with indinavir resulted in a near complete inhibition of APRc
